Measurements: patent US20050175567A1, “Hair care compositions containing phenolic styling agents” (priority 2002, published 2005)

Assay: Curl dropout of treated hair curls in high humidity chamber
Details: 1% by weight solution in water; curls soaked 1 hour, rinsed, dried 30 minutes; 90% RH, 30° C., fan agitation, 1 minute
Description: Three solutions were formulated each containing 1% by weight of either 2,5 dihydroxybenzoic acid, 3,4 dihydroxybenzoic acid or 3,5 dihydroxybenzoic acid. Hair curls were made up using perming rods and 30 cm length hair.
The curls were placed in the solution for 1 hour, rinsed thoroughly with distilled water and dried for 30 minutes. The hair was removed from the curling rod and the length of the curl measured.
The hair was hung in high humidity environmental chamber (90% RH, 30° C.) with fan agitation for 1 minute and measured again.
In the case of O=C(O)c1cc(O)cc(O)c1 [3,5 dihydroxybenzoic acid], the Curl dropout % is reported as 26%. In the case of O=C(O)c1ccc(O)c(O)c1 [3,4 dihydroxybenzoic acid], the Curl dropout % is reported as 29%. For O=C(O)c1cc(O)ccc1O [2,5 dihydroxybenzoic acid], the Curl dropout % was 17.1%.
